# Experimental data taken from ChEMBL document CHEMBL1201862, “PubChem BioAssay data set” (2004).
# Active and inactive are the calls of the source.
# How the values were obtained:
# SUMO-activating enzyme = SUMO-activating enzyme (Homo sapiens, UniProt Q9UBT2); assay: blockers of UBC9-mediated SUMO conjugation – biochemical, AlphaScreen, SUMOylation inhibitor project, confirmation (AID 2018); type: functional
# Prothrombin = Prothrombin (Homo sapiens, UniProt P00734); assay: Thrombin 1536 HTS Dose Response Confirmation. [Related pubchem assays: 1046 (Thrombin 1536 HTS; hits were confirmed in this assay)]; type: functional
# Leucine aminopeptidase = target: T1, Leucine aminopeptidase (Plasmodium falciparum 3D7, UniProt Q8IL11); assay: P. falciparum M17LAP inhibitors, primary screen, biochemical, fluorogenic H-Leu-NHMec substrate, 1536-well (AID 1619); type: functional
# T1 sequence (Q8IL11 whole entry): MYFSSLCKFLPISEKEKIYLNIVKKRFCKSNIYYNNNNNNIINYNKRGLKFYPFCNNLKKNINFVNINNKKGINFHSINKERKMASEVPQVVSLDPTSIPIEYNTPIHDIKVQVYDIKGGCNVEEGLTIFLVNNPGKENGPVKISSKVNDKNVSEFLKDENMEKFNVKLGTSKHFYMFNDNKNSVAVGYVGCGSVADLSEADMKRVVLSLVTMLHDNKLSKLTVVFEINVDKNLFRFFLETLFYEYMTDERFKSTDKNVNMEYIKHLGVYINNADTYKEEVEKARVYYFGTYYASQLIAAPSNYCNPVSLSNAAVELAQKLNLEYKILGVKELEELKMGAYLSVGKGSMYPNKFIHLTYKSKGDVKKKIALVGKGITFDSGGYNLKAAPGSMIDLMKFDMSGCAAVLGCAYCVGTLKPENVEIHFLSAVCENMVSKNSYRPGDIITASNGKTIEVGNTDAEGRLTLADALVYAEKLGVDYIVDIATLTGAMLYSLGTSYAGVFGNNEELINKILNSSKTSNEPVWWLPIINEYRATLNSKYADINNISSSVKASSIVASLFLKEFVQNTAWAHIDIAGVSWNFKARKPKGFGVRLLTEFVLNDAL
# [1] = target: DNA dC->dU-editing enzyme APOBEC-3G (Homo sapiens, UniProt Q9HC16); assay: Dose Response confirmation of small molecule APOBEC3G DNA Deaminase Inhibitors via a fluorescence-based single-stranded DNA deaminase assay. [Related pubchem assays (depositor defined):AID493012, AID493028]; type: functional
# DNA dC->dU-editing enzyme APOBEC-3G, sequence (Q9HC16 whole entry): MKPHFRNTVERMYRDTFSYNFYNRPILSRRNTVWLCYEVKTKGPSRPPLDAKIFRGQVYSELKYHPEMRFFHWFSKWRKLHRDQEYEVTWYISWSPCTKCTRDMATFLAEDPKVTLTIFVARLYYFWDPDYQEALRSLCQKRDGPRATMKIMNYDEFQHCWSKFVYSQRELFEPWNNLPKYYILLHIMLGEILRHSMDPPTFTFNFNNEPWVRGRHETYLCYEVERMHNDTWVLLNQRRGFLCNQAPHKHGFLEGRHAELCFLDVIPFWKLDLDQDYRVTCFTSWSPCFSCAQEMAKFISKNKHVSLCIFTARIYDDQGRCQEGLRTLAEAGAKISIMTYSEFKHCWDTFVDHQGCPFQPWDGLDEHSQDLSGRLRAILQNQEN
# H4 = assay: Luminescence Cell-Based Dose Response HTS to Identify Activators of 5'UTR Stem-Loop Driven Prion Protein mRNA Translation in H4 Neuroglioblastoma Cells. [Related pubchem assays: 1829 (Project Summary), 1814 (Primary HTS)]; type: functional; details: Homo sapiens
# [2] = Luminescence Cell-Based Dose Response HTS to Identify Activators of Luciferase Translation or Activity in H4 […] Cells. [Related pubchem assays: 1829 (Project Summary), 1814 (Primary HTS)]; type: functional
# [3] = Luminescence Cell-Based Dose Confirmation HTS to Identify Activators of 5'UTR Stem-Loop Driven Alpha-Synuclein mRNA Translation in H4 Neuroglioblastoma Cells. [Related pubchem assays: 1829 (Project Summary), 1814 (Primary HTS)]; type: functional
# [4] = target: T2, Histone-lysine N-methyltransferase NSD2 (Homo sapiens, UniProt O96028); type: biochemical
# T2 sequence (O96028 whole entry): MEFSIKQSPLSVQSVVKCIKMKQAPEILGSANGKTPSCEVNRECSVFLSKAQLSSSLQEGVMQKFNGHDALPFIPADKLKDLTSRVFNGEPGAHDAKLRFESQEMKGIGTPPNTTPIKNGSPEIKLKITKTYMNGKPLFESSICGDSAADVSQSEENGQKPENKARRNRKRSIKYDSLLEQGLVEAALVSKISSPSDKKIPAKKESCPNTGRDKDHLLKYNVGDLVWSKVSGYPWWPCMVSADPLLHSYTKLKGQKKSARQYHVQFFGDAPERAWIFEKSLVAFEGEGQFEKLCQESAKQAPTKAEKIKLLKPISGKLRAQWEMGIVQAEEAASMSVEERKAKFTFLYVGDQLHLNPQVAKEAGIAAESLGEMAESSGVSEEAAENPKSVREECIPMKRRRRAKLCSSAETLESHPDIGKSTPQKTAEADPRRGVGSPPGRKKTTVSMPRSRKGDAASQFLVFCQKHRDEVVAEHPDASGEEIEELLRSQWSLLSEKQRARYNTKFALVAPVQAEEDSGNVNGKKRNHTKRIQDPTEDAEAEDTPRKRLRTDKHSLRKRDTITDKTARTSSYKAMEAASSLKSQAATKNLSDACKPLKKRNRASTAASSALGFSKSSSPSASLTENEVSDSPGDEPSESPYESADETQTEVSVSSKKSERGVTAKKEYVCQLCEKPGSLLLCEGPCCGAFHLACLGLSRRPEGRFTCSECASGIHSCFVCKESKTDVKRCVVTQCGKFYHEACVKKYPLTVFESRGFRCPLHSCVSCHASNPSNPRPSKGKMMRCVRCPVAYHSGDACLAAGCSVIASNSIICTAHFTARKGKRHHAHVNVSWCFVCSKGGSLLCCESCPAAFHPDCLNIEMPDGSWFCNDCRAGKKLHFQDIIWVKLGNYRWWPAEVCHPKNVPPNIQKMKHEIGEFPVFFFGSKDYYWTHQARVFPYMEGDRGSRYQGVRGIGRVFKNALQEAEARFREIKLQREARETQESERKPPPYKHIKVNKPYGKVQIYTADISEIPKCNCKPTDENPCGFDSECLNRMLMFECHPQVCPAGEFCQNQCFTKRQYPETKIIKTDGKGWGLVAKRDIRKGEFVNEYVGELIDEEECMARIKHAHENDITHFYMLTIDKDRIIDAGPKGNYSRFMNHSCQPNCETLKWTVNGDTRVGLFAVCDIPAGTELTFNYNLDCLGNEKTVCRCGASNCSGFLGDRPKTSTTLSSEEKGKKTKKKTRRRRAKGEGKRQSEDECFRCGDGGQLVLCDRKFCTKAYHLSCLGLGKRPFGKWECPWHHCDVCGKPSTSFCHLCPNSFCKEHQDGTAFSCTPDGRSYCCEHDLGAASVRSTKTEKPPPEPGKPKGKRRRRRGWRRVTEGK
# [5] = target: T3, Corticotropin-releasing factor receptor 2/Corticotropin-releasing factor-binding protein (Homo sapiens, UniProt P24387+Q13324); assay: activators of CRF receptor 2 with binding protein – uHTS hits, confirmation (AID 602473); type: functional; details: read-out: EC50_Mean
# T3 sequence (Q13324 whole entry): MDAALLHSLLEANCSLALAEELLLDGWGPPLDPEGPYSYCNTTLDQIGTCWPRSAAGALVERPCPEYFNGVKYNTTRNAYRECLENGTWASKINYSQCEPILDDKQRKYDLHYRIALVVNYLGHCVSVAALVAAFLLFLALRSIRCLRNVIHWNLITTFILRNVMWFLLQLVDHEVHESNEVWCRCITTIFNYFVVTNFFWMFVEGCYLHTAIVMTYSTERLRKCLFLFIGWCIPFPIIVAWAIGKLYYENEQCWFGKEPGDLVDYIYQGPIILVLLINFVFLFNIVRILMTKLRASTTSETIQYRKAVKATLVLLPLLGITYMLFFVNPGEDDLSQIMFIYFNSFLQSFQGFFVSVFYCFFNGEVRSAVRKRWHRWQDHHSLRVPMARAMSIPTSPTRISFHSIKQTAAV
# T3 sequence (P24387 whole entry): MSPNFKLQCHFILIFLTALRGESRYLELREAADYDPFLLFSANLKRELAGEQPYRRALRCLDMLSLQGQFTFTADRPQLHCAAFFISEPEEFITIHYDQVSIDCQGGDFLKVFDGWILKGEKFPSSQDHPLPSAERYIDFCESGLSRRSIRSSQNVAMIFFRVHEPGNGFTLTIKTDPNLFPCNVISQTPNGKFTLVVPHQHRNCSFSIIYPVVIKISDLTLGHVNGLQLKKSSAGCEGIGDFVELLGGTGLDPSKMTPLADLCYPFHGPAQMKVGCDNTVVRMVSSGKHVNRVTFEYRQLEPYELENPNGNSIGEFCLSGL
# [6] = target: T3, Corticotropin-releasing factor receptor 2/Corticotropin-releasing factor-binding protein; assay: Dose Response confirmation of uHTS hits for small molecule antagonists of the CRF-binding protein and CRF-R2 receptor complex.; type: functional; details: read-out: IC50_Mean
# [7] = HEK-293T cell viability reduction – luminescence, B-cell screen hits, cytotoxicity control for BCR NF-kB inhibitor project, dose response (AID 489021); type: functional, cell-based;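 note: HEK-293T cells carrying an NF-kB luciferase reporter; cells exposed to compound for about 14 hours before viability readout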
# HEK293 = assay: EBV LMP1 TES2 canonical NF-kB signalling blockers – cell-based, HEK293, luciferase, cherry-pick, dose response (AID 588343); type: functional; details: Homo sapiens
# [8] = Trypanosoma cruzi growth suppression in host cells – NIH3T3 host cells, beta-gal luminescence, confirmation (AID 2044); type: functional, cell-based;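 note: intracellular parasites grown in NIH/3T3 mouse fibroblasts as host cells; luminescent beta-galactosidase reporter signal from transgenic T. cruzi replicating inside host cells; inhibitors lower the luminescence signal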
# [9] = NIH3T3 cell viability loss – ATP luminescence, mouse fibroblasts, counter-screen, dose response (AID 2010); type: functional, cell-based;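 note: cells exposed to compound for about 90 hours before reading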
# [10] = target: Glucose-6-phosphate 1-dehydrogenase (Homo sapiens, UniProt P11413); assay: inhibition of Homo sapiens G6PD, dose series – biochemical, fluorescence, selectivity assay for P. falciparum G6PD inhibitor project, dose response (AID 504792); type: functional
# Glucose-6-phosphate 1-dehydrogenase, sequence (P11413 whole entry): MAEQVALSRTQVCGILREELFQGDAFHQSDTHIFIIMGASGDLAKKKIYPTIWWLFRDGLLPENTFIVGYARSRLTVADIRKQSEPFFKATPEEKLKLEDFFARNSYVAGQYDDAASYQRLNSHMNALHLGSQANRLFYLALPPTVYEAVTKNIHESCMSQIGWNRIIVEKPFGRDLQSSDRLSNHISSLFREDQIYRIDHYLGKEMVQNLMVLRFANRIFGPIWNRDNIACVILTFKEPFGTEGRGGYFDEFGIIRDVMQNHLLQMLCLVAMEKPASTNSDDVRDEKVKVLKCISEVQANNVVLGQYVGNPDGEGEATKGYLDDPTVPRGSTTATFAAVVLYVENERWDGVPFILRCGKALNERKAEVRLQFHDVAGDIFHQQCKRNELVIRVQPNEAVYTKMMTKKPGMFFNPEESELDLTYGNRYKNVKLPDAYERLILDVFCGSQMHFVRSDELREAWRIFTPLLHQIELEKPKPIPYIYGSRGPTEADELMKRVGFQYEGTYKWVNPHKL
# [11] = non-specific 3'UTR reporter inhibition in Clone20-Shn3RL – cell-based, Renilla luciferase, cherry-picked, counter-screen for Shn3 inhibitor project, dose response (AID 624133); type: functional
# Fatty acid synthase [12] = target: T4, Fatty acid synthase (Homo sapiens, UniProt P49327); assay: inhibition of human FAS-TE enzyme activity – biochemical, kinetic fluorescence intensity, dose response (AID 624326); type: functional;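 note: rate of fluorescence rise from hydrolysis of a fluorogenic O-methyl fluorescein ester substrate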
# T4 sequence (P49327 whole entry): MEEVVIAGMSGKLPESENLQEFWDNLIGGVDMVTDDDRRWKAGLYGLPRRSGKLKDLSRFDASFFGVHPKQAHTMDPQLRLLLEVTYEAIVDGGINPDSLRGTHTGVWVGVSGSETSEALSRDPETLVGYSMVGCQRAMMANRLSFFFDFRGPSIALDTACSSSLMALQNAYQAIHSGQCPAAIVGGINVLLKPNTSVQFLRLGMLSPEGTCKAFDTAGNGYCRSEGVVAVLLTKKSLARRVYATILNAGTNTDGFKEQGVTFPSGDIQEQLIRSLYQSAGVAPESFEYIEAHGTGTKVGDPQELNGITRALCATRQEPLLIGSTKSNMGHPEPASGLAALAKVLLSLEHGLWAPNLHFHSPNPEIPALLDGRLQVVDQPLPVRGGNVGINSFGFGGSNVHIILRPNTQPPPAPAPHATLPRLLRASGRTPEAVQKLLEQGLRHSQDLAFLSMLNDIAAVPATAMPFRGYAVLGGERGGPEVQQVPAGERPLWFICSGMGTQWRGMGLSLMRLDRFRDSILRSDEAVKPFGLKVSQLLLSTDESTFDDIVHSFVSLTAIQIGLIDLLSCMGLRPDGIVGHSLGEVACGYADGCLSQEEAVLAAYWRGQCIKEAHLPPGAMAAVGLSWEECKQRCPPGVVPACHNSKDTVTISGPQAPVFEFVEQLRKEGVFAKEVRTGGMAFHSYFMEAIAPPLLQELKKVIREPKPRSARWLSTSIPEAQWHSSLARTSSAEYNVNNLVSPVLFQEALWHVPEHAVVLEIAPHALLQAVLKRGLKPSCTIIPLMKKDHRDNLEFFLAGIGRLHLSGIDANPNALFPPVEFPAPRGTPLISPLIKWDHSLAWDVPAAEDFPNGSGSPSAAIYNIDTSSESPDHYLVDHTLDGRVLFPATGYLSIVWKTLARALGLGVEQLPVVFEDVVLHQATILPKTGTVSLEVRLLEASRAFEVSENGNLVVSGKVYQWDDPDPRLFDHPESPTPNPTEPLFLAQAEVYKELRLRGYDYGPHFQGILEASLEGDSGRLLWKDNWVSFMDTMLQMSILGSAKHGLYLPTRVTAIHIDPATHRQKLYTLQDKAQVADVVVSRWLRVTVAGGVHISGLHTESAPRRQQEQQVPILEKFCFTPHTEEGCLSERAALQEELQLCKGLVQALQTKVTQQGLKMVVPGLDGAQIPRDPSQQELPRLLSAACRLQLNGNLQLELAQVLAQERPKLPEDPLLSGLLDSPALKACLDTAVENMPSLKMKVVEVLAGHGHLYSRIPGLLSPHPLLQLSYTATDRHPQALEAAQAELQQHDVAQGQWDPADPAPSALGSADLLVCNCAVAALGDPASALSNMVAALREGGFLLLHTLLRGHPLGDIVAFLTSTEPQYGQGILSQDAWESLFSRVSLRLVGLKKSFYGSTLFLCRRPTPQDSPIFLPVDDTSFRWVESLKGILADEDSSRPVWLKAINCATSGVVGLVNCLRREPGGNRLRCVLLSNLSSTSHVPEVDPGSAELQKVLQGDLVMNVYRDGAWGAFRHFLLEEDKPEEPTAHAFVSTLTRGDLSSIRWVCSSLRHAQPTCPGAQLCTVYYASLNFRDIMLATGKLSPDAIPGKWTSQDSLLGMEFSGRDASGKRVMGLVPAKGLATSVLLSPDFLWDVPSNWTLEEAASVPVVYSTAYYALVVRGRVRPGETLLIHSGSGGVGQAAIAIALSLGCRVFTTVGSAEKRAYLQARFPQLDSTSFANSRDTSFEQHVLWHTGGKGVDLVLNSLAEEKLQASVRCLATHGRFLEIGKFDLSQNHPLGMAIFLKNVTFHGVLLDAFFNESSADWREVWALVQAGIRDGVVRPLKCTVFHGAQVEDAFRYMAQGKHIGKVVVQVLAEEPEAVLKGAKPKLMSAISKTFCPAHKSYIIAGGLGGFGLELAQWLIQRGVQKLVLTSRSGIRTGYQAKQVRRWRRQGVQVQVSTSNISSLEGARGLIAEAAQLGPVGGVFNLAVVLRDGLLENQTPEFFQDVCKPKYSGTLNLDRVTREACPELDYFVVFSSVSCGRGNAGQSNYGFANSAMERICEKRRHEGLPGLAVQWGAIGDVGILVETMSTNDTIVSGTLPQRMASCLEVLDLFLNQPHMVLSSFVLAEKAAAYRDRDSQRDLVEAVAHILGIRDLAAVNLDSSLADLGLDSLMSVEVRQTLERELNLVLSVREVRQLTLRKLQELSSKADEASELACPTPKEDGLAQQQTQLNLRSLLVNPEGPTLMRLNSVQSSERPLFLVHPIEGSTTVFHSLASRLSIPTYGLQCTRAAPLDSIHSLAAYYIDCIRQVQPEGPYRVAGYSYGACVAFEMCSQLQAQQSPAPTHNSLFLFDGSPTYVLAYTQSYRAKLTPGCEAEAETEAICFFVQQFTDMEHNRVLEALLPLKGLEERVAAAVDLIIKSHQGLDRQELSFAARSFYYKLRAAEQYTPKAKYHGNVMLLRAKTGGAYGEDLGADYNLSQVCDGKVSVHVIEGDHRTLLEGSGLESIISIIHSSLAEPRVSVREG
# [13] = loss of viability in HepG2 cells – cell-based, CellTiter-Glo, cherry-picked, cytotoxicity control for Shn3 inhibitor project, dose response (AID 624134); type: functional
# [14] = reduction of Shn3 3'UTR-driven luciferase in osteoblasts – cell-based, Clone20 osteoblasts, firefly luciferase, cherry-picked, dose response (AID 624132); type: functional;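 note: firefly luciferase luminescence from reporter carrying the Shn3 3'UTR in osteoblasts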
# Fatty acid synthase [15] = target: T4, Fatty acid synthase; assay: inhibition of human FAS-TE enzyme activity – biochemical, endpoint fluorescence intensity, uHTS hits, dose response (AID 624327); type: functional;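 note: fluorescence from hydrolysis of an O-methyl fluorescein acyl ester substrate by the enzyme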
# Cytochrome P450 2C9 = Cytochrome P450 2C9 (Homo sapiens, UniProt P11712)
# Cytochrome P450 2C9, sequence (P11712 whole entry): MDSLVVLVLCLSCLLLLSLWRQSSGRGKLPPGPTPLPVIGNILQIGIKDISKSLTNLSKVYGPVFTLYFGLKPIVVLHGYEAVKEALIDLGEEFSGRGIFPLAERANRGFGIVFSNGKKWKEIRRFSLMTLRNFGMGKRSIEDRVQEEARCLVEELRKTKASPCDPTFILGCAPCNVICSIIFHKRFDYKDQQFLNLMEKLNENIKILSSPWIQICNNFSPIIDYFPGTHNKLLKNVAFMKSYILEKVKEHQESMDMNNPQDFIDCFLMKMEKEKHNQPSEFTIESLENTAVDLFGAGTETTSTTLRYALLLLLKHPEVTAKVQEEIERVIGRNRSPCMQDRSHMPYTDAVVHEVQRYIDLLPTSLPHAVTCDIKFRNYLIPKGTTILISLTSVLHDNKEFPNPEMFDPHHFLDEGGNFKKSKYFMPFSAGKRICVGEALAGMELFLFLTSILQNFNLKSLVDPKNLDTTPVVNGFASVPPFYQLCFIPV
# [16] = viability of uninfected HEp-2 cells – cell-based, HTS, cytotoxicity control for RSV inhibitor project, dose response (AID 2410); type: functional; details: human respiratory syncytial virus
# SUMO-activating enzyme, sequence (Q9UBE0 whole entry): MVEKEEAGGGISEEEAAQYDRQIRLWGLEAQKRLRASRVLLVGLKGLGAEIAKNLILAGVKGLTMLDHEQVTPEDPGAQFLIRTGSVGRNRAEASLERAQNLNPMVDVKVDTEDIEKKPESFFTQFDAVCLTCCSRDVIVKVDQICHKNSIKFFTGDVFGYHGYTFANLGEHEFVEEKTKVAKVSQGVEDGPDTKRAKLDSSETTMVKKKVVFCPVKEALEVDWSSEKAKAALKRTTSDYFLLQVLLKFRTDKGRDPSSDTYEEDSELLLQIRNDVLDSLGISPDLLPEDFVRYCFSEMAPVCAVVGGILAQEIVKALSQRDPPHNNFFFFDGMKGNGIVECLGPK
# SUMO-activating enzyme, sequence (Q9UBT2 whole entry): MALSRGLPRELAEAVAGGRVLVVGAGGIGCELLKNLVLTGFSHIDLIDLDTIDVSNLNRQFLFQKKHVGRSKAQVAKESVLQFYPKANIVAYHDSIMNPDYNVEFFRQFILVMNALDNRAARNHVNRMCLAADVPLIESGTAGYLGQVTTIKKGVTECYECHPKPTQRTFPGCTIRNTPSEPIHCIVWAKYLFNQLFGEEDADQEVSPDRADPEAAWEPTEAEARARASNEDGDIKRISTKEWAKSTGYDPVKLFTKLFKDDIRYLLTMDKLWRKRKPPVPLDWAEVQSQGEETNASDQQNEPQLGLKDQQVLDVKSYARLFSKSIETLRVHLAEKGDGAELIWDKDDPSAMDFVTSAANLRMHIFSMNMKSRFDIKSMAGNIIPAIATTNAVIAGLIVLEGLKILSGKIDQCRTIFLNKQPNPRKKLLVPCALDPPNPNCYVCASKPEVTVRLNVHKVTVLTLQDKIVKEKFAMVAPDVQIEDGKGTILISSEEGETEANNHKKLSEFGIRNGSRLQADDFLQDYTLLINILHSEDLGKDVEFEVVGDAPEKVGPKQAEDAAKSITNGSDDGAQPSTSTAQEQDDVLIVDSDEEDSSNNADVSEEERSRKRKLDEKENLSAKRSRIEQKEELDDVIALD
structure (smiles),measurement,setting,value
Cc1ccc2c(SCC(=O)NCc3ccco3)nc(-c3ccc(F)cc3)nc2c1,IC50,SUMO-activating enzyme,50.1 µM (active)
CC(C(=O)NCc1ccccn1)N1C(=O)c2ccccc2C1=O (stereo not drawn),IC50,Prothrombin,> 50 µM (not active)
O=C(COC(=O)CCc1ccccc1)Nc1ncc(Cl)cc1Cl,IC50,Prothrombin,8.03 µM (active)
Cc1sc(NC(=O)C2CCCCC2C(=O)O)c(C(N)=O)c1-c1ccccc1 (stereo not drawn),IC50,Leucine aminopeptidase,11 µM (active)
O=C(NC1CCCCCC1)c1ccc[nH]c1=S,IC50,[1],21.9 µM (active)
CCOC(=O)c1cnn(-c2ncnc3sc4c(c23)CCC4)c1N,EC50,H4,11.9 µM (active)
same,EC50,[2],29.1 µM (active)
same,EC50,[3],13.8 µM (active)
same,IC50,Prothrombin,> 50 µM (not active)
CN(C)CCNc1ncnc2oc(-c3ccccc3)c(-c3ccccc3)c12,AC50,[4],> 20 µM (inactive)
COc1ccccc1NC(=O)c1sc2nc(-c3ccco3)ccc2c1N,IC50,SUMO-activating enzyme,45.2 µM (active)
COc1ccnc(CSC(=N)Nc2ccc(F)cc2)c1,EC50,[5],32 µM (active)
same,IC50,[6],> 47.1 µM (inactive)
CCOC(=O)c1c(N)sc(C(=O)N2CCCCC2)c1C,EC50,[5],> 53 µM (inactive)
same,IC50,[6],> 47.1 µM (inactive)
Cc1ccc(/C=C2\SC(=S)N(CCCC(=O)NC3CCCC3)C2=O)cc1,IC50,[7],> 80 µM (inactive)
C=CCNC(=O)C(C#N)c1nc2ccccc2nc1N1CCN(Cc2ccccc2)CC1 (stereo not drawn),IC50,Prothrombin,> 50 µM (inconclusive)
CC(C)(C)c1ccc(C(=O)Nc2nnc(SCC(=O)NCC3CCCO3)s2)cc1 (stereo not drawn),AC50,HEK293,2.11 µM (active)
CCCc1cc(=O)c2c(O)ccc(OC)c2o1,AC50,HEK293,> 350 µM (inactive)
COc1ccc(CNc2nc(-c3cccnc3)nn2C(=O)CC(C)C)cc1,IC50,Prothrombin,0.336 µM (active)
CC/C(NCCCN(CC)CC)=C1/C(=O)NC(=O)N(C2CCCCC2)C1=O,EC50,[8],0.171 µM (active)
same,EC50,[9],> 60 µM (not active)
same,AC50,[4],> 20 µM (inactive)
Cc1c(CC(=O)NCCCC(=O)O)c(=O)oc2cc3c(cc12)CCC(C)(C)O3,IC50,[7],> 80 µM (inactive)
Cc1c(O)ccc(-c2[nH]ncc2-c2nc3ccccc3s2)c1O,IC50,Leucine aminopeptidase,6.97 µM (active)
C=CCSc1nnc(NC(=O)c2ccc(Cl)nc2)s1,IC50,[10],> 80 µM (inactive)
Cn1c(=O)n(C)c2cc(NS(=O)(=O)c3ccccc3)ccc21,IC50,[7],> 80 µM (inactive)
Cc1cc(S(=O)(=O)c2ccc(Cl)cc2)nc(S(=O)(=O)c2ccc(Cl)cc2)c1C#N,AC50,[11],21.2 µM (active)
same,IC50,Fatty acid synthase [12],10.4 µM (active)
same,AC50,[13],25.9 µM (active)
same,AC50,[14],2.83 µM (active)
same,IC50,Fatty acid synthase [15],7.57 µM (active)
same,AC50,HEK293,9.23 µM (active)
CCn1c2ccccc2c2cc(/C=N/n3cnnc3S)ccc21,AC50,Cytochrome P450 2C9,31.6 µM (inconclusive)
same,CC50,[16],25.1 µM (active)
same,IC50,[10],> 80 µM (inactive)
same,AC50,HEK293,10.7 µM (active)
O=C(O)c1cccc(NC(=S)N/N=C/c2c[nH]c3ccccc23)c1,IC50,Leucine aminopeptidase,17.6 µM (active)
